# According to US20200163897A1, “METHODS OF TREATING LIVER DISEASES ASSOCIATED WITH PORTAL TRACT OR PERIPORTAL INFLAMMATION” (The Regents of the University of California, priority 2017, published 2020):
# Columns and labels:
# [1] = molecular target: T1, tissue transglutaminase (Rattus norvegicus, UniProt Q9WVJ6); settings: via inhibition of tissue transglutaminase; cited from earlier work
# T1 construct: host or cells: liver of CCl4-treated animals (in vivo)
# T1 sequence (Q9WVJ6 1-686): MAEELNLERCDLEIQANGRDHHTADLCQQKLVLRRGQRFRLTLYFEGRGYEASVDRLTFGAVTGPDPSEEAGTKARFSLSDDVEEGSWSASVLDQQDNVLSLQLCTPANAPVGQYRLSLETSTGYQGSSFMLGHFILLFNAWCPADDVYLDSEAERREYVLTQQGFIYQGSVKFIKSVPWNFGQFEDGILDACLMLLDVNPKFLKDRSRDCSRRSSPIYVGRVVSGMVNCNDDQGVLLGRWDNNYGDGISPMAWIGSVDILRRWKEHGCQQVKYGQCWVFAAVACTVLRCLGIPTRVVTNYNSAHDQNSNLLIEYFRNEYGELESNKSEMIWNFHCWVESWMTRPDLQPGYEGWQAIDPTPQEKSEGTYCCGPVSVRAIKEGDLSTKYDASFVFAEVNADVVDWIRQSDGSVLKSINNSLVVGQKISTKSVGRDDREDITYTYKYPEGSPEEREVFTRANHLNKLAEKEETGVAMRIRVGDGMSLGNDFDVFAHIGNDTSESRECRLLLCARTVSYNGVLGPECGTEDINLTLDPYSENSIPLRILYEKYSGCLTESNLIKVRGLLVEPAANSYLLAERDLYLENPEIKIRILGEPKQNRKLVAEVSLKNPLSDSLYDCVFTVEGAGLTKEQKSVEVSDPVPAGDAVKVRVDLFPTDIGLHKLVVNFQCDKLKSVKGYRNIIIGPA
# [2] = system: obese individuals with NASH; settings: 4-12 weeks, no reported change in body mass index; cited from earlier work
# [3] = system: children with NASH; settings: cited from earlier work
# [4] = system: leukocyte cystine; settings: delivery to the small intestine; cited from earlier work
# [5] = system: acetaminophen-induced hepatocellular injury; settings: mice and humans; cited from earlier work
# [6] = in vivo; design: species or system rats; settings: rat, 20 mg/kg
# From the text: Samples were taken from the portal vein (PV) and jugular vena cava (JVC) in rats that were either pre-treated with or naïve to cysteamine therapy.
# The portal vein delivers blood, and therefore drug, directly to the liver where it diffuses into the periportal region. The concentration of drug in the periportal region is therefore at a maximum level and is higher than the drug concentration in the hepatic lobular region (which drains into the hepatic central veins and then into the JVC). This is possible because as blood, and therefore drug, traverses through the hepatic lobule away from the portal vein its contents will undergo some degree of first-pass metabolism. It is postulated here, that patients with type 2 pediatric NASH, receiving a greater drug exposure at the site of maximal disease (i.e., periportal region; recall Type 2 NASH is characterized by portal inflammation), are more likely to respond to drug therapy than children with type 1 NASH.
# [7] = system: obese children who had steatosis; settings: after vitamin E 400-1000 IU/day for 4-10 months, cited from earlier work
compound,measurement,setting,value
NCCSSCCN [Cystamine],liver fibrosis induced by carbon tetrachloride,[1],ameliorate liver fibrosis
CC(=O)N[C@@H](CS)C(=O)O [N-acetylcysteine],aminotransferase levels and gamma-GT,[2],improvement
NCCS [cysteamine],"blood liver inflammation markers (ALT, AST, GGT)","[3]; children with NASH, 6 and 12 months treatment",statistically significant improvement
same,primary endpoint of improved histology,[3]; placebo controlled 12 month study group,not achieved
same,chance of histological improvement compared with the placebo group,"[3]; post-hoc analysis, children <65 kg body weight, placebo controlled 12 month study",4 fold
same,"decrease in leukocyte cystine, time after treatment",[4],within an hour
same,prevention of acetaminophen-induced hepatocellular injury,[5],effective
same,Tmax,[6],5 to 10 min
vitamin E,mean AST levels,"[7]; decreased from 104±61 IU/L, P<0.002",33±11 IU/L
same,mean ALT levels,"[7]; decreased from 175±106 IU/L, P<0.01",40±26 IU/L
